In article PMC7714071, “Interaction of amyloid beta with humanin and acetylcholinesterase is modulated by ATP” (FEBS Open Bio, 2020):

Tested on: AChE
Experiment: ELISA, binding of biotinylated-Aβ40 to immobilised AChE
Parameters: species or system human
Text: Most of the material used was purchased as we previously reported. Nitrocellulose membranes, PBS, ATP, recombinant human AChE (C1682, UniProt accession ID: C9JD78), streptavidin‐conjugated horseradish peroxidase (HRP) conjugate, Ponceau S solution, PMSF, and HS sodium salt from bovine kidney were purchased from Sigma‐Aldrich (St. Louis, MO, USA). Mouse IgG isotype control (mIgG), ultra 3,3′,5,5′‐tetramethylbenzidine (TMB)‐ELISA substrate solution, Halt Protease and Phosphatase Inhibitor Cocktail, HN polyclonal antibody (rabbit, PA1‐41610), and Nunc MaxiSorpTM 96‐well flat bottom plates were from Thermo Fisher (Waltham, MA, USA). […]
ELISAs were carried out as we previously reported. […] TBST was then used to wash the wells 4× before proceeding in one of two ways: (a) biotinylated samples were analyzed by adding 100 µL streptavidin–HRP conjugate in TBST (1 : 2500 dilution) to the samples followed by incubation for 3 h at RT on a shaker, or (b) samples without biotin were analyzed by adding 100 µL TBST containing the primary antibody as per the manufacturer's recommendation, incubating for 3 h at RT on a shaker, followed by washing the wells 4× with TBST. […] The reaction was stopped with 100 µL 2 M H2SO4 after incubating at RT for 0.5–15 min, resulting in a yellow color change, measured by absorbance at 450 nm. […] Statistical analysis was determined by the […]

| Compound | effect of ATP on affinity of AChE to Aβ40 (200 μM ATP, 30 min preincubation RT, pH 7.5, 10 mM MgCl2, three experiments in triplicate, Fig. 3A) | effect of HS on binding of Aβ40 to AChE (AChE 10 nM on wells, biotinylated-Aβ 1 μM, increasing HS, three independent assays, Fig. 2C) |
| --- | --- | --- |
| Nc1ncnc2c1ncn2[C@@H]1O[C@H](COP(=O)(O)OP(=O)(O)OP(=O)(O)O)[C@@H](O)[C@H]1O [ATP, Adenosine triphosphate] | reduced the affinity | – |
| heparan sulfate [HS] | – | No effects |
